Results: BigSolDB 2.1

In the case of `NC(=O)N/N=C/c1ccc([N+](=O)[O-])o1`, the solubility (mole fraction) (in DMF, 278.15 K) is reported as 0.0194, the solubility (mole fraction) (in DMF, 283.15 K) is reported as 0.0202 and the solubility (mole fraction) (in DMF, 288.15 K) is reported as 0.0207. The solubility (mole fraction) (in DMF, 293.15 K) was 0.0223, the solubility (mole fraction) (in DMF, 298.15 K) was 0.023 and the solubility (mole fraction) (in DMF, 303.15 K) was 0.0255. It also gave a solubility (mole fraction) (in DMF, 308.15 K) of 0.0265, a solubility (mole fraction) (in DMF, 313.15 K) of 0.0279 and a solubility (mole fraction) (in acetone, 278.15 K) of 0.000291. For the same compound, the solubility (mole fraction) (in acetone, 283.15 K) was 0.000339, the solubility (mole fraction) (in acetone, 288.15 K) was 0.00038 and the solubility (mole fraction) (in acetone, 293.15 K) was 0.000435. It also gave a solubility (mole fraction) (in acetone, 298.15 K) of 0.000501, a solubility (mole fraction) (in acetone, 303.15 K) of 0.00056 and a solubility (mole fraction) (in acetone, 308.15 K) of 0.000641. For the same compound, the solubility (mole fraction) (in acetone, 313.15 K) was 0.000749, the solubility (mole fraction) (in acetonitrile, 278.15 K) was 7.32e-05 and the solubility (mole fraction) (in acetonitrile, 283.15 K) was 9.44e-05. For the same compound, the solubility (mole fraction) (in acetonitrile, 288.15 K) was 0.000116, the solubility (mole fraction) (in acetonitrile, 293.15 K) was 0.000146 and the solubility (mole fraction) (in acetonitrile, 298.15 K) was 0.000168. The solubility (mole fraction) (in acetonitrile, 303.15 K) was 0.000204, the solubility (mole fraction) (in acetonitrile, 308.15 K) was 0.000246 and the solubility (mole fraction) (in acetonitrile, 313.15 K) was 0.000293. For the same compound, the solubility (mole fraction) (in ethanol, 278.15 K) was 5.89e-05, the solubility (mole fraction) (in ethanol, 283.15 K) was 7.3e-05 and the solubility (mole fraction) (in ethanol, 288.15 K) was 8.98e-05. It also gave a solubility (mole fraction) (in ethanol, 293.15 K) of 0.000112, a solubility (mole fraction) (in ethanol, 298.15 K) of 0.000136 and a solubility (mole fraction) (in ethanol, 303.15 K) of 0.000165. The solubility (mole fraction) (in ethanol, 308.15 K) was 0.000203, the solubility (mole fraction) (in ethanol, 313.15 K) was 0.000247 and the solubility (mole fraction) (in ethyl acetate, 278.15 K) was 7.69e-05. The solubility (mole fraction) (in ethyl acetate, 283.15 K) was 8.31e-05, the solubility (mole fraction) (in ethyl acetate, 288.15 K) was 9.59e-05 and the solubility (mole fraction) (in ethyl acetate, 293.15 K) was 0.000116. It also gave a solubility (mole fraction) (in ethyl acetate, 298.15 K) of 0.00013, a solubility (mole fraction) (in ethyl acetate, 303.15 K) of 0.000151 and a solubility (mole fraction) (in ethyl acetate, 308.15 K) of 0.000172. For the same compound, the solubility (mole fraction) (in ethyl acetate, 313.15 K) was 0.000202, the solubility (mole fraction) (in formamide, 278.15 K) was 0.00131 and the solubility (mole fraction) (in formamide, 283.15 K) was 0.00154. The solubility (mole fraction) (in formamide, 288.15 K) was 0.00178, the solubility (mole fraction) (in formamide, 293.15 K) was 0.00205 and the solubility (mole fraction) (in formamide, 298.15 K) was 0.0024. The solubility (mole fraction) (in formamide, 303.15 K) was 0.00273, the solubility (mole fraction) (in formamide, 308.15 K) was 0.00313 and the solubility (mole fraction) (in formamide, 313.15 K) was 0.00359. The solubility (mole fraction) (in isopropanol, 278.15 K) was 2.66e-05, the solubility (mole fraction) (in isopropanol, 283.15 K) was 3.27e-05 and the solubility (mole fraction) (in isopropanol, 288.15 K) was 4.03e-05. The solubility (mole fraction) (in isopropanol, 293.15 K) was 5.09e-05, the solubility (mole fraction) (in isopropanol, 298.15 K) was 6.47e-05 and the solubility (mole fraction) (in isopropanol, 303.15 K) was 8.79e-05. For the same compound, the solubility (mole fraction) (in isopropanol, 308.15 K) was 0.000116, the solubility (mole fraction) (in isopropanol, 313.15 K) was 0.000151 and the solubility (mole fraction) (in methanol, 278.15 K) was 0.000137. The solubility (mole fraction) (in methanol, 283.15 K) was 0.000168, the solubility (mole fraction) (in methanol, 288.15 K) was 0.000198 and the solubility (mole fraction) (in methanol, 293.15 K) was 0.000238. The solubility (mole fraction) (in methanol, 298.15 K) was 0.000284, the solubility (mole fraction) (in methanol, 303.15 K) was 0.000338 and the solubility (mole fraction) (in methanol, 308.15 K) was 0.000404. It also gave a solubility (mole fraction) (in methanol, 313.15 K) of 0.000478, a solubility (mole fraction) (in n-propanol, 278.15 K) of 3.6e-05 and a solubility (mole fraction) (in n-propanol, 283.15 K) of 4.98e-05. It also gave a solubility (mole fraction) (in n-propanol, 288.15 K) of 5.29e-05, a solubility (mole fraction) (in n-propanol, 293.15 K) of 6.62e-05 and a solubility (mole fraction) (in n-propanol, 298.15 K) of 8.61e-05. The solubility (mole fraction) (in n-propanol, 303.15 K) was 0.000108, the solubility (mole fraction) (in n-propanol, 308.15 K) was 0.000139 and the solubility (mole fraction) (in n-propanol, 313.15 K) was 0.000164. For the same compound, the solubility (mole fraction) (in water, 278.15 K) was 4.23e-06, the solubility (mole fraction) (in water, 283.15 K) was 5.75e-06 and the solubility (mole fraction) (in water, 288.15 K) was 8.03e-06. The solubility (mole fraction) (in water, 293.15 K) was 1.07e-05, the solubility (mole fraction) (in water, 298.15 K) was 1.27e-05 and the solubility (mole fraction) (in water, 303.15 K) was 1.53e-05. It also gave a solubility (mole fraction) (in water, 308.15 K) of 2.05e-05 and a solubility (mole fraction) (in water, 313.15 K) of 2.68e-05.
